Tests used:
[1] = Solubility at room temperature in water, acid and basic conditions; format: physicochemical; details: free acid, below HPLC detection limit, read-out: intrinsic solubility of the free acid
Description: The solubility of 4-(3-{5-chloro-1-(diphenylmethyl)-2-[2-({[2-(trifluoromethyl)benzyl]sulfonyl}amino)ethyl]-1H-indol-3-yl}propyl)benzoic acid was measured at room temperature in water, acid and basic conditions.

[2] = test system: rat carrageenan-induced paw edema (CPE); assay: Rat carrageenan-induced paw edema (CPE) study; format: in vivo
Description: Data from a rat carrageenan-induced paw edema (CPE) study indicated the minimum efficacious exposure of 4-(3-{5-chloro-1-(diphenylmethyl)-2-[2-({[2-(trifluoromethyl)benzyl]sulfonyl}amino)ethyl]-1H-indol-3-yl}propyl)benzoic acid was 1360 ng*hr/ml.

solubility [1]: < 0.031 µg/mL
Compound: O=C(O)c1ccc(CCCc2c(CCNS(=O)(=O)Cc3ccccc3C(F)(F)F)n(C(c3ccccc3)c3ccccc3)c3ccc(Cl)cc23)cc1 [4-(3-{5-chloro-1-(diphenylmethyl)-2-[2-({[2-(trifluoromethyl)benzyl]sulfonyl}amino)ethyl]-1H-indol-3-yl}propyl)benzoic acid]
minimum efficacious exposure [2]: 1360 ng·h/mL

From US20100069385A1, “LIQUID FORMULATIONS OF PHOSPHOLIPASE ENZYME INHIBITORS” (WYETH, priority 2006, published 2010)
